Positions of bridges follow the written chain, without caps; N, C: chain ends. Non-standard residues stand in square brackets, D forms with d. Residues, ends and D or L forms follow the SMILES beside them. Phe(4-NO2) = N[C@@H](Cc1ccc([N+](=O)[O-])cc1)C(=O)O; dPhe(4-NO2) = N[C@H](Cc1ccc([N+](=O)[O-])cc1)C(=O)O; 2Nal = N[C@@H](Cc1ccc2ccccc2c1)C(=O)O; NMeA = CN[C@@H](C)C(=O)O
What was measured:
[1] = tested on: SSTR2; test: Cyclic AMP accumulation in intact cells (forskalin stimulated, adrenal binding protein method); type: cell-based; conditions: % intrinsic activity
Text: Cyclic AMP accumulation assays are used to determine the functional coupling of somatostatin receptors to effectors. All five cloned somatostatin receptors inhibit cyclic AMP accumulation and adenylyl cyclone activity ^1 ^,2,3,4,5. This evaluation measures cyclic AMP accumulation from intact cells using the adrenal binding protein method. Signal transduction by somatostatin is mediated by lowering intracellular c-AMP levels. This functional assay measures the ability of the test compound to inhibit the effect of somatostatin on forskalin stimulated c-AMP levels. ^1 K. Yasuda, S. Rens-Damiano, C. D. Breder, S. F. Law, C. B. Saper, T. Reisine and G. I. Bell, J. Biol. Chem. 267,20422-20428 (1992). ^2 J. F. Bruno, Y. Xu, J. Song and M. Berelowitz, Proc. Natl. Acad. Sci. USA 89, 11151-11155 (1992). ^3 A. M. O'Carrol, S. J. Lolait, M. König and L. Mahan, Mol. Pharmacol. 42, 939-946 (1992). ^4 J. R. Hadcock, J. Strnad and C. M. Eppler, Mol. Pharmacol. 45, 410-416 (1994). ^5 J. Strnad, C. M. Eppler, M. Corbett and J. R. Hadcock, Biochem. Biophys. Res. Commun.191, 968-976 (1993).
Bovine adrenal gland extracts are prepared according to the method of Brown et al^6 with minor modifications. […] Two-four adrenals are thawed and the cortices are separated on ice: chopped into small pieces; resuspended in 1.5 volumes of buffer containing 0.25 M sucrose, 50 mM Tris-HCl pH 7.4, 25 mM KCl, 5 mM MgCl2 and protease inhibitors (5 µg/ml leupeptin, 5µg/ml aprotinin, 100 µg/ml bacitracin, and 100 µg/ml benzamidine; homogenized with a Polytron and centrifuged for 5 minutes. The resultant supernatant is saved and centrifuged for 15 minutes. This resultant supernatant is saved and stored as 1 mL aliquots at -80°C. Four adrenals glands are usually sufficient to prepare 30-50 one mL aliquots. Each preparation is tested with standards at different dilutions before use in the following experiment. ^6 B. L. Brown, J. D. M. Albano, R. P. Ekins and A. M. Sgherzi, Biochem. J. 121, 561-562 (1971).
Somatostatin-mediated inhibition of cyclic AMP accumulation is measured in intact cells co-incubated with the diterpene forskalin (5 µM) which activates adenylyl cyclase directly and stimulates cyclic AMP accumulation in cells. The medium is aspirated from two 100 mm plates of cells, a 5 mL portion of phosphate-buffered saline containing 2 mM EDTA is added to each plate. The cells are washed off the plate, without scraping. The cells are then pelleted and resuspended in Kreb's Ringers Phosphate (KRP) containing 2 mM CaCl2 (added fresh), washed once and resuspended in 2 ml of KRP with a CaCl2 containing 100 µM IBMX. The cells are counted and the concentration of cells is adjusted to 50,000/70 µl and incubated 15 minutes at room temperature before starting the assay. […]

[2] = molecular target: SSTR2 (Rattus norvegicus, UniProt P30680); test: Competitive binding, displacement of [125I]Tyr11 S-14; parameters: expressed in transfected cells; conditions: [125I]Tyr11 S-14 250 pM, room temperature 2 hours
Method: In this evaluation the concentration of test compound required to displace 50% of somatostatin, SRIF, from the SRIF receptor subtypes expressed in mammalian cells is measured, i.e., the concentration required to inhibit 50% of [^125I] Tyr^11 S-14 (Amersham) (IC50) from binding to the SRIF receptor subtypes.
Radiolabeled SRIF is mixed with pituitary cells, the test compound is added, the mixture is incubated and the radioactivity is measured as compared to control. Reduced radioactivity indicates successful competitive binding of the test compound to the pituitary cell receptor. The concentration of the test compound in nanomolar units required to displace 50% of SRIF from the pituitary cell receptor is calculated and reported in Table II as the IC50 value. Also calculated is the inhibitory constant, Ki.
Tyr^11S-14 (150,000 cpm at 2000 Ci/mmole, 250 pM final concentration). The binding reaction is initiated by adding 2-60µg of membrane protein in a 170 µL volume. Final reaction volume is 200 µl/well. All incubations are carried out at room temperature for 2 hours. Free radioligand is separated from bound ligand by rapid filtration through a glass fiber filter (IH-201-HA) using an Inotech cell harvester. The filter is then washed several times with cold (4°C) binding buffer lacking BSA and protease inhibitors prior to counting in an LKB gamma master counter (78% efficiency). Whatman GFC filters presoaked in 0.3% polyethylenimine (to decrease background) are used.
The IC50 values and Ki values are calculated using the well-known methods described by Y. Cheng and W. H. Prusoff, Biochem. Pharmacol. 22, 3099-3108 (1973), incorporated herein by reference thereto.

Chain of SSTR2 (Rattus norvegicus, UniProt P30680) (P30680 whole entry): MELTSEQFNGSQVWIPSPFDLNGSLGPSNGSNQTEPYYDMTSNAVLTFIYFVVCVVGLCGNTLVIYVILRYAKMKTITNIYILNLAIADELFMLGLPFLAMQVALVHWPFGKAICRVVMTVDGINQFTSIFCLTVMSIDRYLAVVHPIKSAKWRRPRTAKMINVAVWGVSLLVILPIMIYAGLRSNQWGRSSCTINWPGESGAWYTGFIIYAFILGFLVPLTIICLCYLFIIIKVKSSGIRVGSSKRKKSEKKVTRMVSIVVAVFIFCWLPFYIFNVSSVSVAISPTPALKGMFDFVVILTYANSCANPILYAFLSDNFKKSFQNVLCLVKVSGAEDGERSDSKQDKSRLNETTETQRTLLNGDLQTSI

| SMILES | % IA [1] | IC50 ([2]; membrane protein, read-out: SSTR2 Binding Affinity IC50) | Ki ([2]; calculated by Cheng and Prusoff, read-out: SSTR2 Binding Affinity Ki) |
| --- | --- | --- | --- |
| C[C@@H](O)[C@@H]1NC(=O)[C@H](CCCCN)NC(=O)[C@@H](Cc2c[nH]c3ccccc23)NC(=O)[C@H](Cc2ccc(O)cc2)NC(=O)[C@H](NC(=O)[C@@H](N)Cc2ccc(I)cc2)CSSC[C@@H](C(=O)N[C@@H](Cc2ccc(O)cc2)C(N)=O)NC1=O | -12% |  |  |
| NCCCC[C@@H]1NC(=O)[C@@H](Cc2c[nH]c3ccccc23)NC(=O)[C@H](Cc2ccc(O)cc2)NC(=O)[C@H](NC(=O)[C@@H](N)Cc2ccc([N+](=O)[O-])cc2)CSSC[C@@H](C(=O)N[C@@H](Cc2ccc3ccccc3c2)C(N)=O)NC(=O)[C@H](CO)NC1=O (H-[Phe(4-NO2)][dC]Y[dW]KSC[2Nal]-NH2; disulfide 2-7) | 7% |  |  |
| CC(C)[C@@H]1NC(=O)[C@H](CCCCN)NC(=O)[C@@H](Cc2c[nH]c3ccccc23)NC(=O)[C@H](Cc2ccc(O)cc2)NC(=O)[C@H](NC(=O)[C@H](N)Cc2ccc([N+](=O)[O-])cc2)CSSC[C@@H](C(=O)N[C@@H](Cc2ccc(O)cc2)C(N)=O)NC1=O (H-[dPhe(4-NO2)][dC]Y[dW]KVCY-NH2; disulfide 2-7) | 42% |  |  |
| CC(C)[C@@H]1NC(=O)[C@H](CCCCN)NC(=O)[C@@H](Cc2c[nH]c3ccccc23)NC(=O)[C@H](Cc2ccc(O)cc2)NC(=O)[C@H](NC(=O)[C@@H](N)Cc2ccc([N+](=O)[O-])cc2)CSSC[C@@H](C(=O)N(C)[C@@H](C)C(N)=O)NC1=O [H-p-NO2Phe-D-Cys-Tyr-D-Trp-Lys-Val-Cys-N(CH3)Ala-NH2] (H-[Phe(4-NO2)][dC]Y[dW]KVC[NMeA]-NH2; disulfide 2-7) | 29% | 0.055 µM | 0.0244 µM |

Source: patent EP0791603A2, “Pure somatostatin antagonist and methods of use thereof” (American Cyanamid Company, priority 1996, dated 1997)
